Test results as given in patent US12303891B2, “Emulating vascular cellular physiologies” (CALIFORNIA NORTHSTATE COLLEGE OF PHARMACY, LLC, priority 2021, dated 2025).
Entries after “also recorded” stand apart in the source; their conditions may differ.

Experiments:
[1] = test system: PACs of female patients and male patients; experiment: Chips with PACs of female and male PAH patients treated with estrogen and growth factor; assay type: cell-based, human
Procedure: (§1) Into chips prepared by seeding PAH-ECs/SMCs/ADCs of male and female patients, we infused 50 µM bosentan starting from day 4 of cell seeding and continued the infusion for an additional 3 days. To determine whether the drug had any preventive effects, we treated the cell-laden chips with 50 µM bosentan on day 1 of seeding and let the cells grow for 6 more days with no treatment. For studying the influence of growth hormones and anti-PAH drug on cellular functions and remodeling, we seeded male and female PAH-ECs, QD705-labeled or unlabeled PAH-SMCs and PAH-ADCs. We assessed the deposition of human ColT1, expression of aromatase (an enzyme that synthesizes estrogen) and CYP1B1 (an estrogen-metabolizing enzyme) and then measured arterial remodeling and muscularization.
For assessing the effect of the drug pulmonary arterial thickening, we assumed that ECs and SMCs grow in their respective channels, the intimal and medial layers of the chip, not outside their assigned layers. If ECs or SMCs grow outside their original seeding channels, we considered out-of-designated channel growth as intimal or medial layer thickening, respectively. We also considered the migration of SMCs from the medial to intimal as muscularization and that the number of SMCs that grow in the intimal layers is the degree of muscularization. […]

[2] = test system: PAH patients; experiment: Responsiveness of female and male PAH patients to anti-PAH drugs; assay type: in vivo, human; settings: for responsiveness of female PAH patients: 'we have found'
[3] = test system: CMs and PAH-ECs; experiment: PAH-RVH chip prepared with CMs and PAH-ECs, efficacy of anti-PAH drugs; assay type: cell-based, human; settings: chips prepared with CMs and PAH-ECs
Description: The modified chip device can be used, for example, for growing both cardiomyocytes (CMs) in the study of cardiovascular disease, and pulmonary arterial endothelial cells (ECs) in the study of pulmonary vascular diseases. The pulmonary arterial ECs, for example, can be collected from the pulmonary arteries of healthy donors (N-ECs) and that of PAH patients (PAH-ECs). We have seen that PAH is an example of a disease that can benefit from improved treatments developed with the systems and methods taught herein. Through the growing of CMs and either N-ECs or PAH-ECs in respective compartments or channels, for example, we can measure the influence PAH-ECs on CMs by measuring various soluble cellular markers, assessing the contractility of CMs, evaluating the expression of genes by CMs, and study the influence of anti-PAH PAH drugs on the release of hypertrophy inducing agents and hypertrophic markers and CM contractility.
We developed a drug therapy using the systems and methods. We used two anti-PAH drugs, sildenafil and bosentan, on chips prepared with CMs and PAH-ECs, the drug reduced the extent of CM hypertrophy, improved the contractility, and reduced both hypertrophy-inducing agents and hypertrophic markers. From our study, one of skill will understand that the systems and methods can identify the interactions between PAH-afflicted ECs and CMs and assess the efficacy of anti-PAH drugs in ameliorating pulmonary arterial hypertension right ventricular hypertrophy (PAH-RVH).

[4] = test system: PAH-ECs/SMCs/ADCs of male and female patients; experiment: PAH chip, sex-specific therapeutic response to bosentan; assay type: cell-based, human
Procedure: As reported in our recent publication, we first characterized the cells for various markers and seeded control and PAH cells on the respective channels of the chips at a density of 2×10^6 cells/mL of adventitial cells (ADCs) or SMCs and 5˜10×10^6 cells/mL of ECs. SMCs were seeded in rat tail type I collagen solution (Corning Inc., NY). We fed the cells with the media via the two outermost channels. In experiment when chips were seeded with three different cell types, we first instilled collagen (2 mg/mL) alone or SMC mixed with collagen into the medial channel and allowed 20 minutes for collagen to form gel and then seeded ECs and ADCs 20 minutes apart. The cell-laden chips thus prepared were placed in a humidified chamber and let them grow in a CO2 incubator for 5-8 days. Each day, the medium was removed and replaced with 150 μL fresh media.
as §1
For assessing the effect of the drug pulmonary arterial thickening, we assumed that ECs and SMCs grow in their respective channels, the intimal and medial layers of the chip, not outside their assigned layers. If ECs or SMCs grow outside their original seeding channels, we considered out-of-designated channel growth as intimal or medial layer thickening, respectively. We also considered the migration of SMCs from the medial to intimal as muscularization and that the number of SMCs that grow in the intimal layers is the degree of muscularization. These assumptions were based on PAH pathology whereby non-muscularized distal arteries/arterioles become muscularized and show SM-like cells from preexisting SMCs. We used phase contrast microscopy, immunostaining, and quantum dot labeling to draw line between the growth zones of different cells and for counting and identifying cells.
For demarcating boundaries of different cell growth areas, we first imaged the chips using a phase-contrast microscope and then stained the cells for imaging using a confocal microscope. For calculating the extent of intimal and medial thickening, we calculated the average of the lengths of five to seven diametrically uneven points of the same layer. To determine the degree of muscularization, we grew QD-labeled N-SMC/PAH-SMCs on the chip and stained the chips for FSP-1 and CD31 antibodies and counted the number of FSP-1+CD31− or QD-labeled SMCs in all three layers of the chip.

[5] = test system: PAH patients; settings: female vs male PAH patients (p=0.3); cited from earlier work
[6] = bosentan-treated female vs male chips
[7] = early treatment, female chips compared with male counterparts
[8] = female chips, 50 µM bosentan infused from day 4 for 3 days
[9] = preventive: treated on day one after seeding, then 6 days without treatment, female vs male chips

Estrogen
responsiveness of female chips compared with male chips ([1]; chips with PACs from female vs male PAH patients): more responsive | arterial remodeling ([1]; chips with PACs of female patients vs male patients): more extensive arterial remodeling

CCCNS(=O)(=O)Nc1ncnc(OCCOc2ncc(Br)cn2)c1-c1ccc(Br)cc1 [macitentan]
responsiveness of female PAH patients [2]: more responsive

CC(C)N(CCCCOCC(=O)NS(C)(=O)=O)c1cnc(-c2ccccc2)c(-c2ccccc2)n1 [selexipag]
responsiveness of female PAH patients [2]: more responsive

CCCCC[C@H](O)/C=C/[C@@H]1[C@H]2C/C(=C/CCCC(=O)O)O[C@H]2C[C@H]1O [epoprostenol]
responsiveness of female PAH patients [2]: more responsive

CCCc1nn(C)c2c(=O)[nH]c(-c3cc(S(=O)(=O)N4CCN(C)CC4)ccc3OCC)nc12 [sildenafil]
contractility of CMs [3]: improved | extent of CM hypertrophy [3]: reduced | hypertrophic markers [3]: reduced | hypertrophy-inducing agents [3]: reduced | responsiveness of male PAH patients ([2]; male PAH patients, 'we have also found'): more responsive

COc1ccccc1Oc1c(NS(=O)(=O)c2ccc(C(C)(C)C)cc2)nc(-c2ncccn2)nc1OCCO [bosentan]
ColT1a deposition, compartment-specific analysis [4, 6]: lower in bosentan-treated female chips than in the male chips | laminin deposition, compartment-specific analysis [4, 6]: lower in bosentan-treated female chips than in the male chips | responsiveness of female chips compared with male chips ([4]; chips with cells from female vs male PAH patients, 50 µM bosentan): more responsive | intimal deposition of ColT1a [4, 7]: decreases | intimal deposition of laminin [4, 7]: decreases | CYP1B1 expression in the medial layer [4, 8]: lowered | migration of PAH-SMCs toward the luminal and intimal layers [4, 8]: slowed | thickening of the medial layer [4, 8]: reduced | level of muscularization ([4]; female vs male chips, counting QD705+ PAH-SMCs in intimal layers): lower level of muscularization | expression of CYP1B1 [4, 9]: declined more in the medial layer of the female chips than in the male chips | presence of PAH-SMCs in the endothelial layer [4, 9]: lower in the female chips than in the male chips | contractility of CMs [3]: improved | extent of CM hypertrophy [3]: reduced | hypertrophic markers [3]: reduced | hypertrophy-inducing agents [3]: reduced | responsiveness of female PAH patients [2]: more responsive | responsiveness of female PAH patients compared with male patients, clinical data [5]: more responsive; also recorded: responsive

CCCCC[C@H](O)CC[C@@H]1[C@H]2Cc3cccc(OCC(=O)O)c3C[C@H]2C[C@H]1O [treprostinil]
responsiveness of female PAH patients [2]: more responsive
